From article PMC3463759 (Clinical cancer research : an official journal of the …, 2012)
“And” between values parts separate entries of the source, which are not always exact repeats. Identical values can stand only once. Like-named read-outs stand apart in the source and are kept apart here.

How the values were obtained:
[1] = Pharmacokinetics of dasatinib in plasma; conditions: for AUC: 100 mg, AUC(TAU), TAU = 24 h
[2] = system: advanced or recurrent epithelial ovarian, peritoneal, or tubal cancer; experiment: Response
[3] = Phase I 3+3 dose escalation: DLT, MTD, recommended phase II dose
solid tumors = conditions: single agent dasatinib; cited from earlier work
[4] = system: recurrent or persistent ovarian cancer; conditions: single agent 100 mg daily; ref Personal communication, Dr. Russell J. Schilder; cited from earlier work
[5] = cited from earlier work
[6] = paclitaxel and dasatinib, Cycle 2 Day 1, N=18
[7] = with paclitaxel (Cycle 2 Day 1) vs dasatinib alone (Cycle 1 Day 15)
[8] = all patients (N=20), all cycles
[9] = cohort 1 (dasatinib 100 mg), n patients
[10] = cohort 2 (dasatinib 120 mg), n patients
[11] = cohort 3 (dasatinib 150 mg), n patients
[12] = dasatinib 100 mg qd + paclitaxel + carboplatin, N=6, all cycles, patients (%)
[13] = dasatinib 120 mg qd + paclitaxel + carboplatin, N=3, all cycles, patients (%)

Compound: Cc1nc(Nc2ncc(C(=O)Nc3c(C)cccc3Cl)s2)cc(N2CCN(CCO)CC2)n1 [dasatinib, N-(2-chloro-6-methyl-phenyl)-2-(6-(4-(2-hydroxyethyl)-piperazin-1-yl)-2-methylpyrimidin-4-ylamino)thiazole-5-carboxamide]
- T-HALF, Mean (SD) ([1]; dasatinib alone, Cycle 1 Day 15, N=14): 6.17 h and 6.17 (2.32) h
- Tmax ([1]; human, plasma, oral): 2 h
- AUC ([1]; human, plasma, oral, Geo Mean (%CV), dasatinib alone, Cycle 1 Day 15, N=14, dose-normalized to 100 mg): 478 ng·h/mL
- AUC ([1]; human, plasma, oral, Geo Mean (%CV), paclitaxel and dasatinib, Cycle 2 Day 1, N=18, dose-normalized to 100 mg): 415 ng·h/mL
- Cmax ([1]; human, plasma, oral, Cmax, Geo Mean (%CV), paclitaxel and dasatinib, Cycle 2 Day 1, N=18, dose-normalized to 100 mg): 78 ng/mL
- inter-individual variability (%CV) for exposure ([1]; in vivo): 40–90%
- T-HALF, Mean (SD) [1, 6]: 5.27 h and 5.27 (1.26) h
- Tmax, Median (min, max) [1, 6]: 2.00 (0.50, 6.00) h
- reduction of geometric mean AUC(0-T) [1, 7]: 11%
- reduction of geometric mean AUC(TAU) [1, 7]: 13%
- complete responses (CR) ([2]; 3/20): 15%
- partial responses (PR) ([2]; 5/20): 25%
- PFS6-month actuarial estimate ([2]; 95% confidence interval 69–100%): 86%
- median OS ([2]; in vivo): 16.2 months
- median PFS ([2]; in vivo): 7.8 months
- DLT observed ([3]; dasatinib 120 mg daily, paclitaxel 175 mg/m2, carboplatin AUC 6): no DLTs
- DLT observed ([3]; dasatinib 150 mg daily, paclitaxel 175 mg/m2, carboplatin AUC 6, first cycle): no DLTs
- grade 4 neutropenia at 2 weeks ([3]; first three patients of the dasatinib 150 mg daily cohort): all three patients
- predefined MTD ([3]; in combination with paclitaxel and carboplatin, doses up to 150 mg daily): not reached
- best clinical response: PRs (solid tumors): 1–5%
- best clinical response: stable disease (solid tumors): 5–23%
- Grade 3 and 4 neutropenia and thrombocytopenia [4]: not observed
- cases of grade 3 anemia [4]: 1
- median PFS [4]: 2.1 months
- responses [4]: no responses
- dose modifications secondary to hematologic toxicity (46/95 dose modifications): 48%
- patients reporting fatigue (any grade) (all patients): Ninety
- fatigue grade 3 [8]: 10%
- thrombocytopenia grade 3–4 [8]: 35%
- patients requiring dose modifications (cohort 1 (dasatinib 100 mg)): 100%
- urinary tract infection (cohort 1 (dasatinib 100 mg)): 1
- grade 1 hyponatremia (cohort 1 (dasatinib 100 mg), n): 1
- grade 1 sinus pain (cohort 1 (dasatinib 100 mg), n): 9 Pain toxicity also included the following: (1) grade 2 neuralgia (n=1), grade 1 sinus pain (n=1), and grade 1 throat pain (n=1) in cohort 1; and (2) grade 1 back pain (n=1) and grade 1 extremity pain (n=1) in cohort 2.
- grade 1 throat pain (cohort 1 (dasatinib 100 mg), n): 9 Pain toxicity also included the following: (1) grade 2 neuralgia (n=1), grade 1 sinus pain (n=1), and grade 1 throat pain (n=1) in cohort 1; and (2) grade 1 back pain (n=1) and grade 1 extremity pain (n=1) in cohort 2.
- grade 2 neuralgia (cohort 1 (dasatinib 100 mg), n): 9 Pain toxicity also included the following: (1) grade 2 neuralgia (n=1), grade 1 sinus pain (n=1), and grade 1 throat pain (n=1) in cohort 1; and (2) grade 1 back pain (n=1) and grade 1 extremity pain (n=1) in cohort 2.
- pulmonary toxicity, grade 1 other unspecified etiology (cohort 1 (dasatinib 100 mg), n): 10 Pulmonary toxicity also included the following: (1) grade 1 other unspecified etiology (n=1) in cohort 1; and (2) grade 2 hypoxia (n=1 in cohort 2.
- gastrointestinal toxicity, other unspecified etiologies, grade 1 [9]: 5 Gastrointestinal toxicity included other unspecified etiologies: (1) grade 1 (n=1) and grade 2 (n=1) in cohort 1; (2) grade 1 (n=1) in cohort 2; and (3) grade 1 (n=1) in cohort 3.
- gastrointestinal toxicity, other unspecified etiologies, grade 2 [9]: 5 Gastrointestinal toxicity included other unspecified etiologies: (1) grade 1 (n=1) and grade 2 (n=1) in cohort 1; (2) grade 1 (n=1) in cohort 2; and (3) grade 1 (n=1) in cohort 3.
- grade 1 dehydration [9]: 4 Gastrointestinal toxicity also included the following: (1) grade 1 dehydration (n=1) in cohort 1; (2) grade 1 distension (n=1), grade 1 xerostomia (n=1), grade 1 gastritis (n=1) in cohort 2; and (3) grade 1 xerostomia (n=1) in cohort 3.
- grade 1 joint-function toxicity [9]: 1 Additional toxicities in cohort 1 included musculoskeletal toxicity characterized by grade 1 joint-function toxicity (n=1) and grade 1 muscular complaints (n=1). The grade 3 myalgia is reported under pain.
- grade 1 muscular complaints [9]: 1 Additional toxicities in cohort 1 included musculoskeletal toxicity characterized by grade 1 joint-function toxicity (n=1) and grade 1 muscular complaints (n=1). The grade 3 myalgia is reported under pain.
- cases of grade 1 somnolence/depressed level of consciousness (cohort 2 (dasatinib 120 mg)): 8 Neurologic toxicity included one case of grade 1 somnolence/depressed level of consciousness in cohort 2.
- patients requiring dose modifications (cohort 2 (dasatinib 120 mg)): 67%
- grade 1 back pain (cohort 2 (dasatinib 120 mg), n): 9 Pain toxicity also included the following: (1) grade 2 neuralgia (n=1), grade 1 sinus pain (n=1), and grade 1 throat pain (n=1) in cohort 1; and (2) grade 1 back pain (n=1) and grade 1 extremity pain (n=1) in cohort 2.
- grade 1 extremity pain (cohort 2 (dasatinib 120 mg), n): 9 Pain toxicity also included the following: (1) grade 2 neuralgia (n=1), grade 1 sinus pain (n=1), and grade 1 throat pain (n=1) in cohort 1; and (2) grade 1 back pain (n=1) and grade 1 extremity pain (n=1) in cohort 2.
- grade 1 hypokalemia (cohort 2 (dasatinib 120 mg), n): 1
- grade 1 hypomagnesemia (cohort 2 (dasatinib 120 mg), n): 1
- grade 2 hypoxia (cohort 2 (dasatinib 120 mg), n): 10 Pulmonary toxicity also included the following: (1) grade 1 other unspecified etiology (n=1) in cohort 1; and (2) grade 2 hypoxia (n=1 in cohort 2.
- gastrointestinal toxicity, other unspecified etiologies, grade 1 [10]: 5 Gastrointestinal toxicity included other unspecified etiologies: (1) grade 1 (n=1) and grade 2 (n=1) in cohort 1; (2) grade 1 (n=1) in cohort 2; and (3) grade 1 (n=1) in cohort 3.
- grade 1 distension [10]: 4 Gastrointestinal toxicity also included the following: (1) grade 1 dehydration (n=1) in cohort 1; (2) grade 1 distension (n=1), grade 1 xerostomia (n=1), grade 1 gastritis (n=1) in cohort 2; and (3) grade 1 xerostomia (n=1) in cohort 3.
- grade 1 gastritis [10]: 4 Gastrointestinal toxicity also included the following: (1) grade 1 dehydration (n=1) in cohort 1; (2) grade 1 distension (n=1), grade 1 xerostomia (n=1), grade 1 gastritis (n=1) in cohort 2; and (3) grade 1 xerostomia (n=1) in cohort 3.
- grade 1 xerostomia [10]: 4 Gastrointestinal toxicity also included the following: (1) grade 1 dehydration (n=1) in cohort 1; (2) grade 1 distension (n=1), grade 1 xerostomia (n=1), grade 1 gastritis (n=1) in cohort 2; and (3) grade 1 xerostomia (n=1) in cohort 3.
- patients requiring dose modifications (cohort 3 (dasatinib 150 mg)): 91%
- grade 1 elevated alkaline phosphatase (cohort 3 (dasatinib 150 mg), n): 7 Metabolic toxicities also included the following: grade 1 elevated transaminases (n=1), grade 1 elevated alkaline phosphatase (n=1), and proteinuria (grade 1 (n=1), grade 2 (n=1)) in cohort 3.
- grade 1 elevated transaminases (cohort 3 (dasatinib 150 mg), n): 7 Metabolic toxicities also included the following: grade 1 elevated transaminases (n=1), grade 1 elevated alkaline phosphatase (n=1), and proteinuria (grade 1 (n=1), grade 2 (n=1)) in cohort 3.
- grade 1 hyponatremia (cohort 3 (dasatinib 150 mg), n): 2
- grade 2 hypocalcemia (cohort 3 (dasatinib 150 mg), n): 1
- grade 3 hypercalcemia (cohort 3 (dasatinib 150 mg), n): 1
- hypokalemia grade 1 (cohort 3 (dasatinib 150 mg), n): 3
- hypokalemia grade 4 (cohort 3 (dasatinib 150 mg), n): 1
- hypomagnesemia grade 1 (cohort 3 (dasatinib 150 mg), n): 2
- hypomagnesemia grade 2 (cohort 3 (dasatinib 150 mg), n): 1
- hypophosphatemia grade 2 (cohort 3 (dasatinib 150 mg), n): 2
- hypophosphatemia grade 3 (cohort 3 (dasatinib 150 mg), n): 1
- proteinuria grade 1 (cohort 3 (dasatinib 150 mg), n): 7 Metabolic toxicities also included the following: grade 1 elevated transaminases (n=1), grade 1 elevated alkaline phosphatase (n=1), and proteinuria (grade 1 (n=1), grade 2 (n=1)) in cohort 3.
- proteinuria grade 2 (cohort 3 (dasatinib 150 mg), n): 7 Metabolic toxicities also included the following: grade 1 elevated transaminases (n=1), grade 1 elevated alkaline phosphatase (n=1), and proteinuria (grade 1 (n=1), grade 2 (n=1)) in cohort 3.
- gastrointestinal toxicity, other unspecified etiologies, grade 1 [11]: 5 Gastrointestinal toxicity included other unspecified etiologies: (1) grade 1 (n=1) and grade 2 (n=1) in cohort 1; (2) grade 1 (n=1) in cohort 2; and (3) grade 1 (n=1) in cohort 3.
- grade 1 epitaxis [11]: 1
- grade 1 facial and neck edema [11]: 1
- grade 1 weight loss [11]: 2
- grade 1 xerostomia [11]: 4 Gastrointestinal toxicity also included the following: (1) grade 1 dehydration (n=1) in cohort 1; (2) grade 1 distension (n=1), grade 1 xerostomia (n=1), grade 1 gastritis (n=1) in cohort 2; and (3) grade 1 xerostomia (n=1) in cohort 3.
- grade 3 hypotension [11]: 1
- Allergy, Grade 3 [12]: 1 (17)
- Dermatogic: Alopecia, Grade 2 [12]: 6 (100)
- Dermatogic: Pruritis, Grade 2 [12]: 1 (17)
- Gastrointestinal: Anorexia, Grade 1 [12]: 2 (33)
- Gastrointestinal: Mucositis/Stomatitis, Grade 1 [12]: 2 (33)
- Neurologic: Ocular, Grade 1 [12]: 1 (17)
- Pain: Joint, Grade 2 [12]: 2 (33)
- Pain: Muscle, Grade 2 [12]: 1 (17)
- Thrombocytopenia, Grade 1 [12]: 2 (33)
- Thrombocytopenia, Grade 2 [12]: 1 (17)
- Thrombocytopenia, Grade 3 [12]: 1 (17)
- Thrombocytopenia, Grade 4 [12]: 1 (17)
- fatigue grade 3 [12]: 2 (33)
- Allergy, Grade 3 [13]: 1 (33)
- Dermatogic: Alopecia, Grade 1 [13]: 1 (33)
- Dermatogic: Alopecia, Grade 2 [13]: 2 (67)
- Gastrointestinal: Anorexia, Grade 1 [13]: 3 (100)
- Gastrointestinal: Mucositis/Stomatitis, Grade 1 [13]: 1 (33)
- Neurologic: Ocular, Grade 1 [13]: 1 (33)
- Pain: Joint, Grade 2 [13]: 1 (33)
- Thrombocytopenia, Grade 3 [13]: 1 (33)
- clinically-significant pleural effusions, ascites, or cardiac issues (in vivo): not observed
- other infections (in vivo): Two
- patient deaths during the treatment phase (in vivo): no patient deaths
- reports of infection associated with febrile neutropenia (in vivo): one
- incidence of effusions ([5]; 140 mg daily): 9%
- severe pericardial effusions [5]: 1%
- severe pleural effusions [5]: 5%
- grade 3 to 4 hematologic toxicity ([5]; patients with solid tumors): 3–6%
